Results from patent publication US11597728B2, “Monoacylglycerol lipase modulators” (Janssen Pharmaceutica NV, priority 2018, dated 2023).

Target: human MGL from HeLa cells (Homo sapiens (Human), UniProt Q99685)
Test: In vitro MGL activity assay: cleavage of [glycerol-1,3-3H]-oleoyl glycerol, activated carbon filtration
Format: biochemical

Sequence of human MGL from HeLa cells (Q99685 whole entry): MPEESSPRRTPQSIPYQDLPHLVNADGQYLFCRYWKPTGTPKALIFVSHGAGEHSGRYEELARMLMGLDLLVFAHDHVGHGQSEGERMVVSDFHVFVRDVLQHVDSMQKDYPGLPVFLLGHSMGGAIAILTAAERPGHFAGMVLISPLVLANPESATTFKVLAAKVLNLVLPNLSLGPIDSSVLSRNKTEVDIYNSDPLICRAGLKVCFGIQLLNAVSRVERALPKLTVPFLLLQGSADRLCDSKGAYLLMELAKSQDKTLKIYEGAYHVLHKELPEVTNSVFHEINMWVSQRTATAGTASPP

SMILES: Cn1nc2c(c1-c1ccc(F)c(F)c1)C[C@H]1CCC[C@@H]2N1C(=O)c1ccccc1-n1nccn1 [Example 126, (2-(2H-1,2,3-Triazol-2-yl)phenyl)((5R,9S)-3-(3,4-difluorophenyl)-2-methyl-4,5,6,7,8,9-hexahydro-2H-5,9-epiminocycloocta[c]pyrazol-10-yl)methanone]
- IC50: 7.44 nM
